This is an account of results in patent US8580820B2, “Tubulysin compounds with high cytotoxicity, pharmaceutical compositions thereof, and method of use thereof” (Kemtech S.r.L., priority 2009, dated 2013).

Data set [1] concerns A2780, HL60, C6 and HT29 cell lines. Nature of the data set: Cytotoxicity in vitro, summary over the cell lines of example 14. The data set is classed as cell-based, human; rat. The following applies: all cell lines of Tables 1 and 2; read-out: GI50 values determined by means of the cellular viability values. How it is done:
(§1) The cytotoxic effects of the compounds of formula (A) were evaluated by treating […] with different concentrations of the compounds under screening. The following cell lines were used: A2780 (human ovarian carcinoma), HL60 (human leukaemia), C6 (rat glioma) and HT29 (adenocarcinoma of human colon). The cell lines have been obtained by ECACC (European Collection of Cell Cultures).
The cell lines have been cultured in 75 cm^2 flasks with culture medium DMEM (Dulbecco's Medium Eagle Modified, Sigma Aldrich®) and the following additives (Sigma Aldrich®): L-Glutamine 2 mM, 10% Fetal Bovine Serum, Penicillin/-Streptomycin, Fungizone, Gentamycin. The incubation was carried out in modified atmosphere incubators (37° C., 5% CO2). When cell confluence was obtained, the cells were propagated by dilution in a ratio 1:3/1:5 by using a Trypsin-EDTA 1× solution and then transferred into 96 well plates in the suitable culture medium. The cells were then treated for 72 hours with different concentrations (10^−13+10^−4 M) of the compounds under examination. For the tests in vitro the compounds obtained in the examples 1.15 and 6.8 were solubilised in dimethylsulphoxide (DMSO). […]
(§2) In order to control the cellular viability, the ATPlite test (Perkin Elmer) was used. […] For the reading the Victor 3 instrument by Perkin Elmer was used.
Four readings were taken for each sample solution. […]

The subject of data set [2] is HT29 (adenocarcinoma of human colon). The data set can be described thus: Cytotoxicity in vitro, cellular viability (ATPlite Perkin Elmer test), HT29. Further details: cellular viability (ATPlite Perkin Elmer test): unit not given here. The data set is classed as cell-based. Conditions: for cellular viability (ATPlite Perkin Elmer test): 72 hours. How it is done:
as §1
(§3) The cell lines have been cultured in 75 cm^2 flasks with culture medium DMEM (Dulbecco's Medium Eagle Modified, Sigma Aldrich®) and the following additives (Sigma Aldrich®): L-Glutamine 2 mM, 10% Fetal Bovine Serum, Penicillin/-Streptomycin, Fungizone, Gentamycin. The incubation was carried out in modified atmosphere incubators (37° C., 5% CO2). When cell confluence was obtained, the cells were propagated by dilution in a ratio 1:3/1:5 by using a Trypsin-EDTA 1× solution and then transferred into 96 well plates in the suitable culture medium. The cells were then treated for 72 hours with different concentrations (10^−13+10^−4 M) of the compounds under examination. For the tests in vitro the compounds obtained in the examples 1.15 and 6.8 were solubilised in dimethylsulphoxide (DMSO). All the tests were performed with a constant DMSO concentration equal to 0.1% by weight.
(§4) In order to control the cellular viability, the ATPlite test (Perkin Elmer) was used. The APTlite test evaluates the ATP production. APT is a marker of cellular viability as it is present in all the metabolically active cells. The test’ is based on the chemiluminiscence due to the ATP reaction with the luciferase and the D-luciferin. The emitted light is proportional to the ATP concentration. For the reading the Victor 3 instrument by Perkin Elmer was used.
(§5) Four readings were taken for each sample solution. The results (average values) for the cytotoxicity of the compounds of formula (A) obtained in examples 1.15 and 6.8 are reported respectively in Tables 1 and 2. It is noted that the GI50 values determined by means of the cellular viability values are lower than 2 nM. This confirms the high cytotoxicity of the compound of formula (A).

The subject of data set [3] is A2780 (human ovarian carcinoma). The data set can be described thus: Cytotoxicity in vitro, cellular viability (ATPlite Perkin Elmer test), A2780. The data set is classed as cell-based. Also on record: cellular viability (ATPlite Perkin Elmer test): unit not given here. Conditions: for GI50: Homo sapiens. The procedure:
as §1, §3, §4, §5

The next data set concerns HL60 (human leukaemia). The data set can be described thus: Cytotoxicity in vitro, cellular viability (ATPlite Perkin Elmer test), HL60. In kind it is cell-based. Further details: cellular viability (ATPlite Perkin Elmer test): unit not given here. Conditions: for GI50: Homo sapiens. The procedure: as §1, §3, §4, §5
Data set [4] relates to cellular lines HL60, A 2780, C6. Nature of the data set: Cytotoxicity test in vitro on cellular lines (comparative examples 16.10, 17.10). The data set is classed as cell-based, human; rat. The procedure: as §1
The cell lines have been cultured in 75 cm^2 flasks with culture medium DMEM (Dulbecco's Medium Eagle Modified, Sigma Aldrich®) and the following additives (Sigma Aldrich®): L-Glutamine 2 mM, 10% Fetal Bovine Serum, Penicillin/-Streptomycin, Fungizone, Gentamycin. The incubation was carried out in modified atmosphere incubators (37° C., 5% CO2). When cell confluence was obtained, the cells were propagated by dilution in a ratio 1:3/1:5 by using a Trypsin-EDTA 1× solution and then transferred into 96 well plates in the suitable culture medium. […]
as §2
The compound obtained in example 16.9 has been evaluated with the cytotoxicity test in vitro on cellular lines. […]
The cytotoxicity of the compound of the example 17.9 comparative was evaluated as described in example 16.10 comparative for the compound 16.9.

For another data set, the system named is C6 (rat glioma). Nature of the data set: Cytotoxicity in vitro, cellular viability (ATPlite Perkin Elmer test), C6. The following applies: Rattus norvegicus; cellular line C6; read-out: GI50. In kind it is cell-based. How it is done: as §1, §3, §4, §5

Read-outs that look alike come from different tables or passages of the source.

For `CCC(C)[C@H](NC(=O)[C@H]1CCCCN1C)C(=O)N(Cc1ccccc1)[C@H](C[C@@H](OC(C)=O)c1nc(C(=O)N[C@@H](Cc2ccccc2)C[C@H](C)C(=O)O)cs1)C(C)C` (stereo in doubt) [Example 1.15, (2S,4R)-4-(2-((1R,3R)-1-acetoxy-3-((2S,3R)—N-benzyl-3-methyl-2-(1-methylpiperidin-2-carboxamido)pentanamido)-4-methylpentyl)thiazol-4-carboxamido)-2-methyl-5-phenyl-pentanoic acid], the GI50 in data set [1] was less than 2 nM; in data set [2] (Homo sapiens, HT-29, 72 hours, value is GI50 multiplied by 10^9, Table 1), 0.312 nM; in data set [3] (72 hours, value is GI50 multiplied by 10^9, Table 1, read-out: GI50 × 10^9), 0.0018 nM. Moreover, the “cellular viability (ATPlite Perkin Elmer test)” value (“cellular viability” below) in data set [2] (compound 10^−4 mole/litre) was determined as 15.14; in data set [2] (compound 10^−5 mole/litre) it was 14.55; in data set [2] (compound 10^−6 mole/litre), 15.43; in data set [2] (compound 10^−7 mole/litre), 16.85; in data set [2] (compound 10^−8 mole/litre), 17.55; in data set [2] (compound 10^−9 mole/litre), 20.77. Moreover, the “cellular viability” value in data set [2] (compound 10^−10 mole/litre) is reported as 99.08; in data set [2] (compound 10^−11 mole/litre), 102.2; in data set [2] (compound 10^−12 mole/litre) it was 103.2; in data set [2] (compound 10^−13 mole/litre) it was 104.5; in data set [3] (compound 10^−4 mole/litre, 72 hours), 3.10; in data set [3] (compound 10^−5 mole/litre, 72 hours), 7.23. In addition, the “cellular viability” value in data set [3] (compound 10^−6 mole/litre, 72 hours) is listed as 9.60; in data set [3] (compound 10^−7 mole/litre, 72 hours), 10.60; in data set [3] (compound 10^−8 mole/litre, 72 hours), 11.78; in data set [3] (compound 10^−9 mole/litre, 72 hours), 25.08; in data set [3] (compound 10^−10 mole/litre, 72 hours), 25.04; in data set [3] (compound 10^−11 mole/litre, 72 hours) it was 32.71. For the same compound, the “cellular viability” value in data set [3] (compound 10^−12 mole/litre, 72 hours) was determined as 65.66; in data set [3] (compound 10^−13 mole/litre, 72 hours) it was 100.1; with HL60 (human leukaemia) (HL60, compound 10^−4 mole/litre, 72 hours) it was 0.47; with HL60 (human leukaemia) (HL60, compound 10^−5 mole/litre, 72 hours), 2.57; in the data set with HL60 (human leukaemia) (HL60, compound 10^−6 mole/litre, 72 hours), 2.99; in the data set on HL60 (human leukaemia) (HL60, compound 10^−7 mole/litre, 72 hours) it was 2.69. In addition, the “cellular viability” value with HL60 (human leukaemia) (HL60, compound 10^−8 mole/litre, 72 hours) is 2.94; in the data set with HL60 (human leukaemia) (HL60, compound 10^−9 mole/litre, 72 hours) it was 3.66; in the data set with HL60 (human leukaemia) (HL60, compound 10^−10 mole/litre, 72 hours), 8.29; in the data set with HL60 (human leukaemia) (HL60, compound 10^−11 mole/litre, 72 hours), 22.65; in the data set with HL60 (human leukaemia) (HL60, compound 10^−12 mole/litre, 72 hours), 34.26; in the data set on HL60 (human leukaemia) (HL60, compound 10^−13 mole/litre, 72 hours) it was 98.98. Further, in the data set with HL60 (human leukaemia) (HL60, 72 hours, value is GI50 multiplied by 10^9, Table 1), the “GI50 × 10^9” value amounted to 0.0004 moles/litre.

The compound `CC[C@H](C)[C@H](NC(=O)[C@H]1CCCCN1C)C(=O)N[C@H](C[C@@H](OC(C)=O)c1nc(C(=O)N[C@@H](Cc2ccccc2)C[C@H](C)C(=O)O)cs1)C1CCCCC1` [Example 17.9, (2S,4R)-4-(2-((1R,3R)-1-acetoxy-3-cyclohexyl-3-((2S,3S)-3-methyl-2-((R)-1-methyl-piperidin-2-carboxamido)pentanamido)propyl)thiazol-4-carboxamido)-2-methyl-5-phenyl pentanoic acid] gave a GI50 in data set [4] (Homo sapiens, HL60/A, evaluated as in example 16.10, cellular line not stated) of 10000 nM. Moreover, in data set [4] (ratio of GI50 values), the “times higher than the GI50 of the compounds of the invention” value is 10,000 times.

Regarding `CC[C@H](C)[C@H](NC(=O)C1CCCCN1C)C(=O)N[C@H](C[C@@H](OC(C)=O)c1nc(C(=O)N[C@@H](Cc2ccccc2)C[C@H](C)C(=O)O)cs1)c1ccc(OC)cc1` (stereo partly drawn) [Example 16.9, (2S,4R)-4-(2-((1R,3R)-1-acetoxy-3-(4-methoxy-phenyl)-3-((2S,3S)-3-methyl-2-((R)-1-methylpiperidin-2-carbox-amido)pentanamido)propyl)thiazol-4-carboxamido)-2-methyl-5-phenylpentanoic acid, reference compound], the GI50 is greater than 10000 nM with C6 (rat glioma); greater than 100000 nM in data set [3] (cellular line A 2780, read-out: GI50); greater than 10000 nM with HL60 (human leukaemia) (cellular line HL 60, read-out: GI50).

`CC[C@H](C)[C@H](NC(=O)[C@H]1CCCCN1C)C(=O)N(CCOC)[C@H](C[C@@H](OC(C)=O)c1nc(C(=O)NC)cs1)C(C)C` [Example 15.4, (1R,3R)-3-((2S,3S)—N-(2-methoxyethyl)-3-methyl-2-((R)-1-methylpiperidine-2-carboxamido)pentanamido)-4-methyl-1-(4-(methylcarbamoyl)thiazol-2-yl)pentyl acetate, reference compound]: the cell viability is on record as 96% in the data set on HL60 (human leukaemia) (HL60, concentration of 10^−10 mole/liter) and 99.8% in the data set with HL60 (human leukaemia) (HL60, concentration of 10^−11 mole/liter). Also, in the data set with HL60 (human leukaemia) (HL60, ratio of GI50 values), the “times less toxic than the compounds of the present invention” value is reported as 10^3 times. The GI50 with HL60 (human leukaemia) (HL-60, HL60, read-out: citotoxicity, expressed as GI50) was determined as 10 nM.
